Assay results published in patent US20230151003A1, “COMPOUNDS AND METHODS OF USE” (Exelixis, Inc., priority 2020, published 2023).
Counter-ions that a name gives are not always drawn.

How the values were obtained:
KDR = KDR (Homo sapiens, UniProt P35968); assay: KDR autophosphorylation ELISA in HUVEC cells; assay type: cell-based; design: endogenous in cells; host or cells: HUVEC (Lonza #C2519A); conditions: Table 3 Cellular Activities, VEGF165-stimulated, phospho-KDR ELISA
Procedure, shortened: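 HUVEC, 24 h serum-free starvation; cpd 8-pt dilution, 0.3% DMSO final, 1 h; VEGF165 100 ng/mL, 5 min; cold lysis; phospho-KDR ELISA; IC50, 4PL.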

Met = Met (Homo sapiens, UniProt P08581); assay: Met autophosphorylation ELISA in PC-3 cells; assay type: cell-based; design: endogenous in cells; host or cells: PC-3 prostate cancer cells (ATCC #CRL-1435); conditions: Table 3 Cellular Activities, HGF-stimulated, phospho-Met ELISA, read-out: c-Met IC50
Chain of Met (P08581 25-1390): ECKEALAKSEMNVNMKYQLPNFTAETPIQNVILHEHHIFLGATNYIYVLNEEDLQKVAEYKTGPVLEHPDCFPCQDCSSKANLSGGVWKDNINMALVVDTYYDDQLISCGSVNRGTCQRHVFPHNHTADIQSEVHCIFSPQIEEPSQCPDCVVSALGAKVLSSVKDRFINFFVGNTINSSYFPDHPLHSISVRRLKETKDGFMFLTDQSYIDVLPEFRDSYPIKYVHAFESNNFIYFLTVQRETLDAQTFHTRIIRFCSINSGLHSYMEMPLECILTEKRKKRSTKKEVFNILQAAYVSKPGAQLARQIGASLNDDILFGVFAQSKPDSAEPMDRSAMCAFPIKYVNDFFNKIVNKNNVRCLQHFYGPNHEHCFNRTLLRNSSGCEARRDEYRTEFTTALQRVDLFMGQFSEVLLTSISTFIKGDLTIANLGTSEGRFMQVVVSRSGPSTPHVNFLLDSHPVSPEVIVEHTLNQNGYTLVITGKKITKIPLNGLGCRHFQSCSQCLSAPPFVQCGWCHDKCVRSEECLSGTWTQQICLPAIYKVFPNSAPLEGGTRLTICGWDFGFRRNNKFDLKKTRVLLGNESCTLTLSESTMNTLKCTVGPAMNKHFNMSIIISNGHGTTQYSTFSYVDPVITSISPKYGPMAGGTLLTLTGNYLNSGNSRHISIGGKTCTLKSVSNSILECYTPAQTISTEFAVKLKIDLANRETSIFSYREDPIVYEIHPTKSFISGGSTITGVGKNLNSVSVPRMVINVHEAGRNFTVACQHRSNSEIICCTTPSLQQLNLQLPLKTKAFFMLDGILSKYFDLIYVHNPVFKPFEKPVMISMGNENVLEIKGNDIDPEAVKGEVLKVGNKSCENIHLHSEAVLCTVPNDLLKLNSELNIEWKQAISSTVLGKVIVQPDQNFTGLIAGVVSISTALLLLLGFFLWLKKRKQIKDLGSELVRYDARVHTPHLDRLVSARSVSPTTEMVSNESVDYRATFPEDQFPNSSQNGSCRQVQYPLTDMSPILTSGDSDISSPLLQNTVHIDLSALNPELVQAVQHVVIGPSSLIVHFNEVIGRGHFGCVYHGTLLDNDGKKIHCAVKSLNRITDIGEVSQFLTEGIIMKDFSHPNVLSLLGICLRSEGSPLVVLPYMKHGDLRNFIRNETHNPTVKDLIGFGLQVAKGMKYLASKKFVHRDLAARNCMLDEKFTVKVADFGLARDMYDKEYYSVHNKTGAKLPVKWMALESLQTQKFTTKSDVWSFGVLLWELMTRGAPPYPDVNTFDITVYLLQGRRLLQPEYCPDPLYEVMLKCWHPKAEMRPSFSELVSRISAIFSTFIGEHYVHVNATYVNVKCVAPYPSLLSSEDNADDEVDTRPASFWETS
Procedure, shortened: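 IC50 derived by 4-parameter logistic regression of phospho-Met (panTyr) sandwich ELISA signal, scaled between HGF-stimulated DMSO and reference-inhibitor lysates. PC-3 cells, serum-starved 3 h, received an 8-point compound series (0.3% DMSO) for 1 h before 10 min stimulation with 100 ng/mL human HGF.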

Chain of KDR (P35968 20-1356): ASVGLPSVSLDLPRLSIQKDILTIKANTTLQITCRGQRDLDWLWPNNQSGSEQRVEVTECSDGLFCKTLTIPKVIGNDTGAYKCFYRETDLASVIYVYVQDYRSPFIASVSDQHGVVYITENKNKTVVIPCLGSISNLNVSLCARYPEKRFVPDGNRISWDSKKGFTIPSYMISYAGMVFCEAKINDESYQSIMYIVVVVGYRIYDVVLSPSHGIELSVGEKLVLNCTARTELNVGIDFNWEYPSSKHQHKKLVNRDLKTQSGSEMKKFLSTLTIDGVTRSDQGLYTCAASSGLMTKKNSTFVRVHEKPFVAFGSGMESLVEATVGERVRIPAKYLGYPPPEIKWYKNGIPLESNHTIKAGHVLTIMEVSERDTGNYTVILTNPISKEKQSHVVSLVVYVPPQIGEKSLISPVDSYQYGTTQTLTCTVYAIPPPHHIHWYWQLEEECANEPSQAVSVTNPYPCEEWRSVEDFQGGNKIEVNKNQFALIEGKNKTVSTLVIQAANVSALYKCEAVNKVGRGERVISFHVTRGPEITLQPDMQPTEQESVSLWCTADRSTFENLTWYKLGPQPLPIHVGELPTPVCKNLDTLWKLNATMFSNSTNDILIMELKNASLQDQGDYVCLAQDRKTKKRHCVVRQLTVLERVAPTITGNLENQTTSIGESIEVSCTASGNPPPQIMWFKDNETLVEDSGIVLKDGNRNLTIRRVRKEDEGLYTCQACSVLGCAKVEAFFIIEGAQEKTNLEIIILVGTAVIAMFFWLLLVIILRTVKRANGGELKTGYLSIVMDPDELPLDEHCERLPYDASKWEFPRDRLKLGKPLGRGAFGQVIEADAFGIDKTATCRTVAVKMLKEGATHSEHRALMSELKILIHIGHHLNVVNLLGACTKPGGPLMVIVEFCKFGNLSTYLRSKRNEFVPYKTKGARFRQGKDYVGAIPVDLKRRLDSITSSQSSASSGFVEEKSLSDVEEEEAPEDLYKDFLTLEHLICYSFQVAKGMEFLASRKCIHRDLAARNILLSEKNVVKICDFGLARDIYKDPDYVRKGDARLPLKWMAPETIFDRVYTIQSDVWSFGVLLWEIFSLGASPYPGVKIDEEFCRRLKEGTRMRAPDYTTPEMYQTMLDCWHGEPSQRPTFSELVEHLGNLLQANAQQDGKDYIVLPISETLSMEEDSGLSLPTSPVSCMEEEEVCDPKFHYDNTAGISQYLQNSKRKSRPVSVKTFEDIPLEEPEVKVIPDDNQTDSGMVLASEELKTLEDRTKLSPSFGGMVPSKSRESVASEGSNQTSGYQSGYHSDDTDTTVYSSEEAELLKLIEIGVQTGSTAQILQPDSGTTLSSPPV

Compound	IC50 (KDR) [nM]	IC50 (Met) [nM]
COc1cc2nccc(Oc3ccc(NC(=O)c4c5n(cc(-c6ccc(C)s6)c4=O)CCOC5)cc3)c2nc1OC [Compound 305, N-[4-[(6,7-Dimethoxy-1,5-naphthyridin-4-yl)oxy]phenyl]-7-(5-methylthiophen-2-yl)-8-oxo-3,4-dihydro-1H-pyrido[2,1-c][1,4]oxazine-9-carboxamide]	300 to 1000	≤ 100
COc1cc2nccc(Oc3ccc(NC(=O)c4cnc(C)c(-c5ccco5)n4)cc3F)c2nc1OC [Compound 269, N-[4-[(6,7-Dimethoxy-1,5-naphthyridin-4-yl)oxy]-3-fluorophenyl]-6-(furan-2-yl)-5-methylpyrazine-2-carboxamide]	300 to 1000	≤ 100
COc1cc2nccc(Oc3ccc(NC(=O)c4cc(C(C)=O)c(C)n(-c5ccco5)c4=O)cc3)c2nc1OC [Compound 237, 5-Acetyl-N-[4-[(6,7-dimethoxy-1,5-naphthyridin-4-yl)oxy]phenyl]-1-(furan-2-yl)-6-methyl-2-oxopyridine-3-carboxamide]	300 to 1000	300 to 1000
COc1cc2nccc(Oc3ccc(NC(=O)c4cccn(-c5cc[n+]([O-])cc5)c4=O)cc3F)c2nc1OC [Compound 247, N-[4-[(6,7-Dimethoxy-1,5-naphthyridin-4-yl)oxy]-3-fluorophenyl]-1-(1-oxidopyridin-1-ium-4-yl)-2-oxopyridine-3-carboxamide hydrochloride]	100 to 300	≤ 100
COc1cc2nccc(Oc3ccc(NC(=O)c4ccc(C)n(-c5ncc(F)cc5C)c4=O)cc3F)c2nc1OC [Compound 51, N-[4-[(6,7-Dimethoxy-1,5-naphthyridin-4-yl)oxy]-3-fluorophenyl]-1-(5-fluoro-3-methylpyridin-2-yl)-6-methyl-2-oxopyridine-3-carboxamide]	≤ 100	≤ 100
COc1cnc2c(Oc3ccc(NC(=O)c4c(C)ncc(-c5ccccn5)c4O)cc3F)ccnc2c1 [Compound 70, N-[3-Fluoro-4-[(7-methoxy-1,5-naphthyridin-4-yl)oxy]phenyl]-4-hydroxy-2-methyl-5-pyridin-2-ylpyridine-3-carboxamide]	≤ 100	≤ 100
COc1cc2nccc(Oc3ccc(NC(=O)c4c(C)n(C)c(C)c(-c5coc6ccccc56)c4=O)cc3F)c2nc1OC [Compound 262, 5-(1-Benzofuran-3-yl)-N-[4-[(6,7-dimethoxy-1,5-naphthyridin-4-yl)oxy]-3-fluorophenyl]-1,2,6-trimethyl-4-oxopyridine-3-carboxamide]	300 to 1000	300 to 1000
COc1cnc2c(Oc3ccc(NC(=O)c4c(C)n(C)cc(-c5ccc(F)cn5)c4=O)cc3F)ccnc2c1 [Compound 73, N-[3-Fluoro-4-[(7-methoxy-1,5-naphthyridin-4-yl)oxy]phenyl]-5-(5-fluoropyridin-2-yl)-1,2-dimethyl-4-oxopyridine-3-carboxamide]	300 to 1000	≤ 100
COc1cc2nccc(Oc3ccc(NC(=O)c4ccc(C)n(-c5cccnn5)c4=O)cc3F)c2nc1OC [Compound 234, N-[4-[(6,7-Dimethoxy-1,5-naphthyridin-4-yl)oxy]-3-fluorophenyl]-6-methyl-2-oxo-1-pyridazin-3-ylpyridine-3-carboxamide]	100 to 300	≤ 100
COc1cc2nccc(Oc3ccc(NC(=O)c4cnc(C)c(-c5ccco5)c4O)cc3F)c2cc1OC [Compound 259, N-[4-(6,7-Dimethoxyquinolin-4-yl)oxy-3-fluorophenyl]-5-(furan-2-yl)-4-hydroxy-6-methylpyridine-3-carboxamide]	≤ 100	≤ 100
COc1cnc2c(Oc3ccc(NC(=O)c4ccc(C)n(-c5ccc(F)cn5)c4=O)cc3F)ccnc2c1 [Compound 45, N-[3-Fluoro-4-[(7-methoxy-1,5-naphthyridin-4-yl)oxy]phenyl]-1-(5-fluoropyridin-2-yl)-6-methyl-2-oxopyridine-3-carboxamide]	≤ 100	≤ 100
COc1cnc2c(Oc3ccc(NC(=O)c4cnc(C)c(-c5cccs5)c4O)cc3)ccnc2c1 [Compound 257, 4-Hydroxy-N-[4-[(7-methoxy-1,5-naphthyridin-4-yl)oxy]phenyl]-6-methyl-5-thiophen-2-ylpyridine-3-carboxamide]	≤ 100	≤ 100
COc1cc2nccc(Oc3ccc(NC(=O)c4cnc(C)c(-c5ccc(F)cn5)c4O)cc3F)c2nc1OC [Compound 85, N-[4-[(6,7-Dimethoxy-1,5-naphthyridin-4-yl)oxy]-3-fluorophenyl]-5-(5-fluoropyridin-2-yl)-4-hydroxy-6-methylpyridine-3-carboxamide]	≤ 100	≤ 100
COc1cc2nccc(Oc3ccc(NC(=O)c4c(C)cc(C)n(-c5ccc(F)cn5)c4=O)cc3)c2nc1OC [Compound 245, N-[4-[(6,7-Dimethoxy-1,5-naphthyridin-4-yl)oxy]phenyl]-1-(5-fluoropyridin-2-yl)-4,6-dimethyl-2-oxopyridine-3-carboxamide]	≤ 100	≤ 100
COc1cc2nccc(Oc3ccc(NC(=O)c4ccc(C)n(-c5cc[n+]([O-])cc5)c4=O)cc3F)c2nc1OC [Compound 231, N-[4-[(6,7-Dimethoxy-1,5-naphthyridin-4-yl)oxy]-3-fluorophenyl]-6-methyl-1-(1-oxidopyridin-1-ium-4-yl)-2-oxopyridine-3-carboxamide]	100 to 300	≤ 100
COc1cc2nccc(Oc3ccc(NC(=O)c4nccn(-c5ccc(F)cn5)c4=O)cc3F)c2nc1OC [Compound 246, N-[4-[(6,7Dimethoxy-1,5-naphthyridin-4-yl)oxy]-3-fluorophenyl]-4-(5-fluoropyridin-2-yl)-3-oxopyrazine-2-carboxamide]	100 to 300	≤ 100

Other lines, results leading:

IC50 (KDR) [nM]	IC50 (Met) [nM]	Compound
≤ 100	≤ 100	COc1cc2nccc(Oc3ccc(NC(=O)c4c(C)ccn(-c5ccc(F)cn5)c4=O)cc3F)c2nc1OC [Compound 41, N-[4-[(6,7-Dimethoxy-1,5-naphthyridin-4-yl)oxy]-3-fluorophenyl]-1-(5-fluoropyridin-2-yl)-4-methyl-2-oxopyridine-3-carboxamide]
≤ 100	≤ 100	COc1cc2nccc(Oc3ccc(NC(=O)c4cnc(C)c(-c5ccco5)c4O)cc3)c2nc1OC [Compound 255, N-[4-[(6,7-Dimethoxy-1,5-naphthyridin-4-yl)oxy]phenyl]-5-(furan-2-yl)-4-hydroxy-6-methylpyridine-3-carboxamide]
300 to 1000	≤ 100	COc1cc2nccc(Oc3ccc(NC(=O)c4c(C)n(C)cc(-c5ccc(F)cn5)c4=O)cc3F)c2nc1OC [Compound 71, N-[4-[(6,7-Dimethoxy-1,5-naphthyridin-4-yl)oxy]-3-fluorophenyl]-5-(5-fluoropyridin-2-yl)-1,2-dimethyl-4-oxopyridine-3-carboxamide]
≤ 100	≤ 100	COc1cc(-n2c(C)ccc(C(=O)Nc3ccc(Oc4ccnc5cc(OC)c(OC)nc45)c(F)c3)c2=O)ccn1 [Compound 226, N-[4-[(6,7-Dimethoxy-1,5-naphthyridin-4-yl)oxy]-3-fluorophenyl]-1-(2-methoxypyridin-4-yl)-6-methyl-2-oxopyridine-3-carboxamide]
300 to 1000	≤ 100	COc1cc2nccc(Oc3ccc(NC(=O)c4c5n(cc(-c6ccc(C)s6)c4=O)CCOC5)cc3F)c2nc1OC [Compound 304, N-[4-[(6,7-Dimethoxy-1,5-naphthyridin-4-yl)oxy]-3-fluorophenyl]-7-(5-methylthiophen-2-yl)-8-oxo-3,4-dihydro-1H-pyrido[2,1-c][1,4]oxazine-9-carboxamide]
≤ 100	≤ 100	COc1cc2nccc(Oc3ccc(NC(=O)c4ccc(C)n(-c5ccncc5)c4=O)cc3F)c2nc1OC [Compound 221, N-[4-[(6,7-Dimethoxy-1,5-naphthyridin-4-yl)oxy]-3-fluorophenyl]-6-methyl-2-oxo-1-pyridin-4-ylpyridine-3-carboxamid]
300 to 1000	≤ 100	COc1cnc2c(Oc3ccc(NC(=O)c4cn(CCF)c(C)c(-c5cc(C)cs5)c4=O)cc3F)ccnc2c1 [Compound 328, 1-(2-Fluoroethyl)-N-[3-fluoro-4-[(7-methoxy-1,5-naphthyridin-4-yl)oxy]phenyl]-6-methyl-5-(4-methylthiophen-2-yl)-4-oxopyridine-3-carboxamide]
≤ 100	≤ 100	COc1cc2nccc(Oc3ccc(NC(=O)c4c(C)ncc(-c5ncc(F)cc5C)c4O)cc3F)c2nc1OC [Compound 200, N-[4-[(6,7-Dimethoxy-1,5-naphthyridin-4-yl)oxy]-3-fluorophenyl]-5-(5-fluoro-3-methylpyridin-2-yl)-4-hydroxy-2-methylpyridine-3-carboxamide]
300 to 1000	300 to 1000	COCCOc1cc2nccc(Oc3ccc(NC(=O)c4c(C)n(C)c(C)c(-c5cc6ccccc6o5)c4=O)cc3F)c2nc1OC [Compound 263, 5-(1-Benzofuran-2-yl)-N-[3-fluoro-4-[[6-methoxy-7-(2-methoxyethoxy)-1,5-naphthyridin-4-yl]oxy]phenyl]-1,2,6-trimethyl-4-oxopyridine-3-carboxamide]
100 to 300	≤ 100	CCOc1ccn(-c2ccc(F)cn2)c(=O)c1C(=O)Nc1ccc(Oc2ccnc3cc(OC)c(OC)nc23)c(F)c1 [Compound 243, N-[4-[(6,7-dimethoxy-1,5-naphthyridin-4-yl)oxy]-3-fluorophenyl]-4-ethoxy-1-(5-fluoropyridin-2-yl)-2-oxopyridine-3-carboxamide]
